# Experimental data: patent publication US20040235900A1, “Antimicrobial oxazolifinones with improved pharmacokinetic profile and safety advantages” (priority 2002, published 2004)
# System: MRSA 32
# Assay: Murine assay procedure (systemic MRSA 32 infection, oral treatment)
# Format: in vivo, swiss mice
# Settings: Staphylococcus aureus; oral administration, doses 1 hr and 4 hrs after infection; MRSA 32 infected mice; percentage survival on Day 7
# Procedure: Oxazolidinone new chemical entities (NCEs) were evaluated for their in vivo efficacy in a murine infection caused by multi-drug resistant, methicillin resistant Staphylococcus aureus strain, referred to as MRSA 32, a clinical isolate obtained from a hospitalised patient. The procedure used for the murine assay is as follows:
# Four weeks old swiss mice of 18-22 gm body weight were infected with MRSA 32 strain suspended in 5% Hog gastric Mucin. The infecting dose of bacteria was set at 1-2×10^8 CFU/animal. The infecting dose was administered in 0.5 ml volume injected into peritonial cavity of mice. The treatment with oxazolidinone NCEs was started one hour after infection by administering 100-200 μl of the suspensions of oxazolidinone compounds in 5% Tween 80 by oral gavage. A repeat dose was similarly administered 3 hrs later. Each oxazolidinone NCE was tested at 2-3 different dosages in the range of 2.5 mg/kg to 20 mg/kg. In each dose group 6 mice were included. As an infection control group 12 mice were infected with MRSA 32 strain without giving any treatment. Normally untreated infected mice die within 24 hrs. due to the systemic spread of infection through out the animal body. […] For compounds affording protection of MRSA infected mice, ED50 dosages were calculated on the basis of percentage survival on Day 7 after infection.
# The in-vivo ED50 values using the test compounds were determined essentially by the method as described in PCT WO 95/25106, U.S. Pat. No. 5,668,286 and EP 0 750 618 B1.
compound,measurement,value
"CC(=O)NC[C@H]1CN(c2ccc(N3CCC(CC#N)CC3)c(F)c2)C(=O)O1 [Compound 4, (S)-N-{3-[4-(4-cyanomethyl-piperidin-1-yl)-3-fluoro-phenyl]-2-oxo-oxazolidin-5-ylmethyl}-acetamide]",ED50,2.5 to 5 mg/kg
